From patent US20020159981A1, “Methods of controlling proliferation and differentiation of stem and progenitor cells” (Gamida-Cell Ltd., priority 1999, published 2002)

Experiments:
[1] = tested on: Cord blood-derived CD34 cells; experiment: Short-term liquid culture of CD34 cells: cell number, CD34 cells, colony forming cells; assay type: cell-based, human
Experimental: The interphase layer of mononuclear cells were collected, washed three times with Ca/Mg free phosphate buffered saline containing 1% bovine serum albumin (BSA). The cells were incubated for 30 min. at 4° C. with murine monoclonal anti CD34 antibody (0.5 μg/10^6 mononuclear cells) and thereafter isolated using the miniMACS apparatus (Miltenyi-Biotec, Bergisch, Gladbach, Germany) according to the manufacturer's protocol.
(§1) Culture procedures: For the expansion of progenitor cells, CD34^+ enriched fractions or unseparated mononuclear cells were seeded at about 1-3×10^4 cells/ml in either alpha minimal essential medium containing 10% preselected fetal calf serum (FCS) (both from GIBCO, Grand Island, N.Y.), or serum-free medium (Progenitor-34 medium, Life Technologies, Grand Island, N.Y.). The media were supplemented with a mixture of growth factors and transition metal chelators. The cultures were incubated at 37° C. in an atmosphere of 5% CO2 in air with extra humidity. Half of the medium was changed weekly with fresh medium containing all the supplements.
(§2) Cloning potential evaluations: The cloning potential of cells developed in the liquid culture was assayed, at different intervals, in semi-solid medium. The cells were washed and seeded in 35 mm dishes in methylcellulose containing alpha medium supplemented with recombinant growth factors (SCF, G-CSF, GM-CSF and EPO). Following 2 weeks incubation, the cultures were scored with an inverted microscope. Colonies were classified as blast, mixed, erythroid, myeloid, and megakaryocytic, according to their cellular composition.
Immunofluorescence staining: At different intervals, cells from the liquid cultures were assayed for CD34 antigen. Aliquots were harvested, washed and incubated on ice with FITC-labeled anti CD45 monoclonal antibody and either PE-labeled anti CD34 (HPCA-2) monoclonal antibody or PE-labeled control mouse Ig. After incubation, red cells were lysed with lysing solution, while the remaining cells were washed and analyzed by flow cytometer.
Flow cytometry: Cells were analyzed and sorted using FACStarPlus flow cytometer (Becton-Dickinson, Immunofluorometry systems, Mountain View, Calif.). Cells were passed at a rate of 1,000 cells/second through a […] nozzle, using saline as the sheath fluid. A 488 nm argon laser beam at 250 mW served as the light source for excitation. […] The PMTs was set at the appropriate voltage. Logarithmic amplification was applied for measurements of fluorescence and linear amplification—for forward light scatter. At least 10^4 cells were analyzed.
Cord blood-derived CD34 cells were plated in liquid culture in the presence of: FL—50 ng/ml, SCF—50 ng/ml, IL-6—50 ng/ml, with or without IL-3—20 ng/ml, with or without TEPA—10 μM. On day 7, the percentage of CD34 cells and the total cell number were determined. Aliquots equivalent to 1×10^3 initiating cells were assayed on days 0 and 7 for colony forming cells (CFU) by cloning in semi-solid medium. CFU expansion represents the ratio of CFU present on day 7 to CFU present on day 0.

[2] = tested on: Cord blood-derived CD34 cells; experiment: Long-term liquid culture of CD34 cells: proliferation, CFUc, differentiation status; assay type: cell-based, human
Experimental: as §1, §2
Morphological assessment: In order to characterize the resulting culture populations, aliquots of cells were deposited on a glass slide (cytocentrifuge, Shandon, Runcorn, UK), fixed and stained in May-Grunwald Giemsa. Other aliquots were stained by benzidine for intracellular hemoglobin.
TEPA effects on proliferation and clonability of long-term CD34^+ cultures: Long-term cultures were maintained for 3-5 weeks by weekly demi-depopulation (one half of the culture volume was removed and replaced by fresh medium and cytokines).
CD34^+ cells derived from human neonatal cord blood were purified by immunomagnetic method and then cultured in liquid medium supplemented with cytokines either with or without transition metal chelators. At weekly intervals, the cultures were demi-depopulated by removing half of the culture content (supernatant and cells) and replacing it with fresh medium, cytokines and the chelators. At the indicated weeks the cellular content of the cultures were quantified for total cells (by a manual microscopic/hemocytometric method), for CD34^+ cells (by immuno-flow cytometry) and for clonogenic cells (by cloning the cells in cytokine-supplemented semi-solid medium). The cultures were initiated with 1×10^4 cells, 50-80% of which were CD34^+ and 25-50% of which were CFUc. The results presented in FIGS. 11 to 24 were calculated per 1×10^4 initiating cells (the numbers were multiplied by the dilution factors).

Cord blood-derived cells = experiment: Preservation of stem cells: storage and separation with TEPA, then long-term culture; assay type: cell-based; settings: cells stored 24 hours at 4° C. and separated with 10 μM TEPA; without TEPA 5 weeks
Experimental: Cord blood-derived cells were collected and stored (unseparated) for 24 hours, at 4° C., either in the presence or absence of 10 μM TEPA. CD34^+ cells were then separated using either 10 μM TEPA-PBS buffer or TEPA free PBS buffer, respectively. Then, cells were grown in long-term cultures in the presence of 10 μM TEPA.

embryonal stem cells = experiment: Embryonal stem cell culture: differentiation and proliferation; assay type: cell-based
Experimental: Thus, embryonal stem cells were cultured for 3-4 days essentially as described in (66), in the presence of LIF (20-100 ng/ml) or TEPA (10-20 μM) and their differentiation compared to non-treated control cells.

Hepatocytes = experiment: Ex-vivo expansion of hepatocytes; assay type: cell-based, BALB/c mice; settings: 15 μg/ml TEPA, five weeks (FIGS. 27a-d)
Experimental: Hepatocytes: Livers were dissected from anesthetized BALB/c mice with sterile tools and immersed into F12 culture medium (Biological Industries, Kibbutz Bet Ha'Emek, Israel). The livers were washed three times with 3% BSA/PBS buffer and minced into small pieces with seizures. Following three washes with 3% BSA/PBS the liver tissue pieces were incubated for 30 minutes with 0.05% collagenase at 37° C. with continues shaking under 5% CO2 atmosphere. The digested liver tissue pieces were than mashed by pressing through a fine mesh strainer. After three washes with 3% BSA/PBS the liver cells were seeded into F12 culture medium enriched with: 15 mM HEPES buffer, […], 10 mM sodium bicarbonate, 0.5 u/ml insulin, 7.5 ng/ml hydrocortisone and with or without 15 μg/ml of TEPA and incubated at 37° C. in a 5% CO2 atmosphere. After overnight incubation the medium was removed and the cells were supplemented with fresh enriched F12 medium as described above with or without 15 μg/ml of TEPA. Hepatocytes were incubated in 35 mm dishes for several weeks with enriched F12 culture medium with or without 15 μg/ml TEPA at 37° C. under 5% CO2 atmosphere. Cell culture medium was replaced every week with a fresh medium.

[3] = high doses of early cytokines or early- and late-acting cytokines (Table 1, FIG. 3)

NCCNCCNCCNCCN [TEPA, tetraethylenepentamine]
Cells/ml (×10^4) ([1]; TEPA 10 μM, without IL-3, FL, SCF, IL-6 50 ng/ml each, day 7): 2 ×10^4 cells/ml | total cell number ([1]; cultures supplemented with both early and late cytokines (FIG. 3)): marginal inhibition | clonability [1, 3]: significantly increased | percentage of CD34^+ cells [1, 3]: significantly increased | cell clonability ([1]; low doses of early-acting cytokines, colonies in semi-solid medium (FIG. 1)): significant increase | total cell number ([1]; low doses of early-acting cytokines, compared to cytokines only (FIG. 2)): significant increase | number of CD34^+ cells ([1]; low doses of early-acting cytokines, flow cytometry (FIG. 2)): significant increase | activity on differentiation of CD34^+ cells [2]: inhibit differentiation | clonability in long-term cultures ([2]; 3-5 weeks, early or early and late cytokines, compared to cytokines only (FIGS. 3, 4)): higher clonability | differentiation stimulatory effect of G-CSF and GM-CSF ([2]; G-CSF and GM-CSF 10 ng/ml each, CFUc frequency (FIG. 15)): blocked | CFUc in culture upon termination ([2]; after 6 weeks, started with 2.5×10^3 CFUc, TEPA 10 μM): 300×10^3 CFUc | time cultures could be maintained ([2]; early-acting cytokines, no stromal cells, TEPA 10 μM (FIG. 11)): > 6 weeks | effectiveness among polyamine chelating agents ([2]; long term cultures (FIGS. 21a-b)): more effective than the short-chain polyamines | cell proliferation and generation of CFUc in long-term cultures ([2]; long-term cultures (FIGS. 21, 22)): support continuous cell proliferation and long-term generation of CFUc and to delay cell differentiation | concentrations with optimal activity ([2]; polyamine chelating agents, weeks 3, 4, 6, 7 (FIGS. 21a-b)): 40 µM | concentrations with optimal activity ([2]; transition metal chelating agents, weeks 4, 5, 7 (FIGS. 22a-b)): 10 µM | time cultures expanded (Cord blood-derived cells): 8 weeks | maintaining the undifferentiative phenotype of embryonal stem cells (embryonal stem cells): can replace LIF | state of hepatocytes cultures (Hepatocytes): contained many dividing and undifferentiated cells
